Test results published in US8299301B2 (priority 2007, dated 2012).
Read-outs that look alike come from different tables or passages of the source. Blank lines part the entries; values can stand above or below the compound they belong to.

Columns and labels:
[1] = pH 2.3
[2] = test system: Erysiphe graminis f.sp. hordei; assay: Erysiphe test (barley) / protective; type: in vivo; settings: Blumeria graminis, 168 h, read-out: efficacy
Experimental: Erysiphe Test (Barley)/Protective
(§1) To produce a suitable preparation of active compound, 1 part by weight of active compound is mixed with the stated amounts of solvent and emulsifier, and the concentrate is diluted with water to the desired concentration.
To test for protective activity, young plants are sprayed with the active compound preparation at the stated application rate. After the spray coating has dried on, the plants are dusted with spores of Erysiphe graminis f.sp. hordei. The plants are placed in a greenhouse at a temperature of about 20° C. and a relative atmospheric humidity of about 80% to promote the development of mildew pustules.
Evaluation is carried out 7 days after the inoculation. 0% means an efficacy which corresponds to that of the control, whereas an efficacy of 100% means that no infection is observed.

Puccinia recondite = assay: Puccinia test (wheat) / protective; type: in vivo; settings: 240 h, read-out: efficacy
Experimental: Puccinia Test (Wheat)/Protective
as §1
To test for protective activity, young plants are sprayed with the active compound preparation at the stated application rate. After the spray coating has dried on, the plants are sprayed with a conidia suspension of Puccinia recondite. The plants remain in an incubation cabin at 20° C. and 100% relative atmospheric humidity for 48 hours. The plants are then placed in a greenhouse at a temperature of about 20° C. and a relative atmospheric humidity of 80% to promote the development of rust pustules.
Evaluation is carried out 10 days after the inoculation. 0% means an efficacy which corresponds to that of the control, whereas an efficacy of 100% means that no infection is observed.

Sphaerotheca fuliginea = assay: Sphaerotheca test (cucumber) / protective; type: in vivo; settings: Podosphaera fuliginea, 168 h, read-out: efficacy
Experimental: Sphaerotheca Test (Cucumber)/Protective [table] To produce a suitable preparation of active compound, 1 part by weight of active compound is mixed with the stated amounts of solvent and emulsifier, and the concentrate is diluted with water to the desired concentration. To test for protective activity, young cucumber plants are sprayed with the active compound preparation at the stated application rate. 1 day after the treatment, the plants are inoculated with a spore suspension of Sphaerotheca fuliginea.

[3] = cucumber, protective, active compound concentration 500 ppm, evaluation 7 days after inoculation
[4] = barley, protective, active compound concentration 1000 ppm, evaluation 7 days after inoculation
[5] = wheat, protective, active compound concentration 1000 ppm, evaluation 10 days after inoculation

logP (logP determination; logP acid, acid): 2.17
Compound: CCN(C)C=Nc1cc(C(F)F)c(Oc2cccc(C(C)F)c2)cc1C (centres unmarked) [Compound 16, N-ethyl-N-methyl-N′-{4-[3-(1-fluoroethyl)-phenoxy]-5-difluoromethyl-2-methylphenyl}formamidine]
pest or weed control at 500 ppm (Sphaerotheca fuliginea; [3]): ≥ 70%

logP (logP determination; logP acid, acid): 2.97
Compound: CCN(C)C=Nc1cc(C(F)F)c(Oc2ccc(Cl)c(C(C)C)c2)cc1C [Compound 17, N-ethyl-N-methyl-N′-[4-(3-isopropyl-4-chlorophenoxy)-5-difluoromethyl-2-methylphenyl]formamidine]

logP (logP determination; logP acid, acid): 3.26
logP (logP determination; logP neutral, neutral): 6.68
Compound: CCN(C)C=Nc1cc(C(F)(F)F)c(Oc2ccc(Cl)c(C(C)(C)C)c2)cc1C [Compound 3, N-ethyl-N-methyl-N′-[4-(3-tert-butyl-4-chlorophenoxy)-5-trifluoromethyl-2-methylphenyl]formamidine]
pest or weed control at 1000 ppm [2, 4]: ≥ 70%
pest or weed control at 1000 ppm (Puccinia recondite; [5]): ≥ 70%
pest or weed control at 500 ppm (Sphaerotheca fuliginea; [3]): ≥ 70%

logP (logP determination; logP acid, acid): 3.01
logP (logP determination; logP neutral, neutral): 6.15
Compound: CCCN(C)C=Nc1cc(C(F)(F)F)c(Oc2ccc(Cl)c(C(F)(F)F)c2)cc1C [Compound 6, N-propyl-N-methyl-N′-[4-(3-trifluoromethyl-4-chlorophenoxy)-5-trifluoromethyl-2-methylphenyl]formamidine]
pest or weed control at 1000 ppm [2, 4]: ≥ 70%
pest or weed control at 1000 ppm (Puccinia recondite; [5]): ≥ 70%
pest or weed control at 500 ppm (Sphaerotheca fuliginea; [3]): ≥ 70%

logP (logP determination; logP acid, acid): 2.81
logP (logP determination; logP neutral, neutral): 5.77
Compound: CCN(C)C=Nc1cc(C(F)(F)F)c(Oc2ccc(Cl)c(C(F)(F)F)c2)cc1C [Compound 5, N-ethyl-N-methyl-N′-[4-(3-trifluoromethyl-4-chlorophenoxy)-5-trifluoromethyl-2-methylphenyl]formamidine]
pest or weed control at 500 ppm (Sphaerotheca fuliginea; [3]): ≥ 70%

logP (logP determination; logP acid, acid): 2.5
Compound: CCN(C)C=Nc1cc(C(F)F)c(Oc2cccc(C(C)C)c2)cc1C [Compound 18, N-ethyl-N-methyl-N′-[4-(3-iso-propylphenoxy)-5-difluoromethyl-2-methylphenyl]formamidine]

logP (logP determination; logP acid, acid): 3.13
logP (logP determination; logP neutral, neutral): 6.3
Compound: Cc1cc(Oc2ccc(Cl)c(C(C)(C)C)c2)c(C(F)(F)F)cc1N=CN(C)C [Compound 8, N,N-dimethyl-N′-[4-(3-tert-butyl-4-chlorophenoxy)-5-trifluoromethyl-2-methylphenyl]formamidine]
pest or weed control at 1000 ppm [2, 4]: ≥ 70%
pest or weed control at 1000 ppm (Puccinia recondite; [5]): ≥ 70%
pest or weed control at 500 ppm (Sphaerotheca fuliginea; [3]): ≥ 70%

logP (logP determination; logP acid, acid): 2.52
logP (logP determination; logP neutral, neutral): 6.04
logP (logP determination; pH 2.3, log P (pH2.3), pH 2.3): 2.52
Compound: CCN(C)C=Nc1cc(C(F)(F)F)c(Oc2cccc(C(C)(C)C)c2)cc1C [Compound 11, N-ethyl-N-methyl-N′-[4-(3-tert-butylphenoxy)-5-trifluoromethyl-2-methylphenyl]formamidine]

logP (logP determination; logP acid, acid): 2.82
Compound: CCN(C)C=Nc1cc(C(F)F)c(Oc2ccc(Cl)c(C(C)(C)C)c2)cc1C [Compound 9, N-ethyl-N-methyl-N′-[4-(3-tert-butyl-4-chlorophenoxy)-5-difluoromethyl-2-methylphenyl]formamidine]
pest or weed control at 1000 ppm [2, 4]: ≥ 70%
pest or weed control at 1000 ppm (Puccinia recondite; [5]): ≥ 70%
pest or weed control at 500 ppm (Sphaerotheca fuliginea; [3]): ≥ 70%

More lines, now with the values behind:

Compound: Cc1c([N+](=O)[O-])ccc(Cl)c1C(F)(F)F [4-Chloro-3-trifluoromethyl-2-methylnitrobenzene]
log P (HCOOH) (logP determination; HCOOH): 3.60

Compound: 4-(3-tertButylphenoxy)-5-trifluoromethyl-2-methylnitrobenzene
log P (pH2.3) [1]: 5.68

Compound: CCN(C)C=Nc1cc(C(F)(F)F)c(Oc2cccc(C(C)C)c2)cc1C [Compound 4, N-ethyl-N-methyl-N′-[4-(3-iso-propylphenoxy)-5-trifluoromethyl-2-methylphenyl]formamidine]
logP (logP determination; logP acid, acid): 2.65
logP (logP determination; logP neutral, neutral): 5.74
pest or weed control at 1000 ppm [2]: ≥ 70%
pest or weed control at 1000 ppm (Puccinia recondite): ≥ 70%
pest or weed control at 500 ppm (Sphaerotheca fuliginea): ≥ 70%

Compound: CCN(C)C=Nc1cc(C(F)F)c(Oc2ccccc2)cc1C [Compound 13, N-ethyl-N-methyl-N′-[4-phenoxy-5-difluoromethyl-2-methylphenyl]formamidine]
logP (logP determination; logP acid, acid): 1.73
pest or weed control at 500 ppm (Sphaerotheca fuliginea): ≥ 70%

Compound: Cc1cc(Oc2cccc(C(C)(C)C)c2)c(C(F)(F)F)cc1N [4-(3-tertButylphenoxy)-5-trifluoromethyl-2-methylaniline]
logP (logP determination; pH 2.3, log P (pH2.3), pH 2.3): 4.67

Compound: CCN(C)C=Nc1cc(CF)c(Oc2ccc(Cl)c(C(C)(C)C)c2)cc1C [Compound 1, N-ethyl-N-methyl-N′-[4-(3-tert-butyl-4-chlorophenoxy)-5-fluoromethyl-2-methylphenyl]formamidine]
logP (logP determination; logP acid, acid): 2.93
pest or weed control at 1000 ppm [2, 4]: ≥ 70%
pest or weed control at 1000 ppm (Puccinia recondite; [5]): ≥ 70%

Compound: Cc1cc(Oc2cccc(C(C)C)c2)c(C(F)F)cc1N=CN1CCCCC1 [Compound 14, N-piperidinyl-N'-[4-(3-iso-propylphenoxy)-5-difluoromethyl-2-methylphenyl]formamidine]
logP acid (logP determination; acid): 2.60

Compound: Cc1cc(Oc2ccc(Cl)c(C(F)(F)F)c2)c(C(F)(F)F)cc1N=CN1CCCCC1 [Compound 7, N-piperidinyl-N′-[4-(3-trifluoromethyl-4-chlorophenoxy)-5-trifluoromethyl-2-methylphenyl]formamidine]
logP acid (logP determination; acid): 2.98
logP neutral (logP determination; neutral): 6.19

Compound: CCN(C)C=Nc1cc(CF)c(-c2ccc(C(C)(C)C)cc2)cc1C [Compound 2, N-ethyl-N-methyl-N′-[4-(4-tert-butylphenyl)-5-fluoromethyl-2-methylphenyl]formamidine]
logP (logP determination; logP acid, acid): 2.67
pest or weed control at 1000 ppm [2, 4]: ≥ 70%
pest or weed control at 1000 ppm (Puccinia recondite; [5]): ≥ 70%

Compound: CCN(C)C=Nc1cc(C(F)F)c(Oc2cccc(C(C)O)c2)cc1C (centres unmarked) [Compound 15, N-ethyl-N-methyl-N′-{4-[3-(1-hydroxyethyl)-phenoxy]-5-difluoromethyl-2-methylphenyl}formamidine]
logP (logP determination; logP acid, acid): 1.65
pest or weed control at 500 ppm (Sphaerotheca fuliginea): ≥ 70%

Compound: CCN(C)C=Nc1cc(C(F)(F)F)c(-c2ccc(C(C)(C)C)cc2)cc1C [Compound 12]
logP (logP determination; logP acid, acid): 2.74
logP (logP determination; logP neutral, neutral): 6.15
pest or weed control at 1000 ppm [2]: ≥ 70%
pest or weed control at 1000 ppm (Puccinia recondite): ≥ 70%
pest or weed control at 500 ppm (Sphaerotheca fuliginea): ≥ 70%

Compound: CCN(C)C=Nc1cc(C(F)F)c(Oc2ccc(Cl)c(Cl)c2)cc1C [Compound 10, N-ethyl-N-methyl-N′-[4-(3,4-dichlorophenoxy)-5-difluoromethyl-2-methylphenyl]formamidine]
logP (logP determination; logP acid, acid): 2.31
pest or weed control at 1000 ppm [2]: ≥ 70%
pest or weed control at 1000 ppm (Puccinia recondite): ≥ 70%
pest or weed control at 500 ppm (Sphaerotheca fuliginea): ≥ 70%
